Experimental data published in patent US7238527B2, “Methods and compositions for rapid in vitro propagation of Swertia chirata” (priority 2001, dated 2007).

System: Swertia chirata shoots
Assay: Rooting of excised four-week shoots on modified MS with auxins (Example 3)
Type: cell-based
Settings: for Rooting %: agar 0.8%
Procedure: The effect of various auxins on rooting percent and duration may be studied using four-week shoots obtained in the preceding section.
The excised shoot may be transferred to modified MS basal culture medium with varied concentrations of several auxins selected from a group comprising IAA, IBA, and NAA as shown in Table 3.
In this experiment there are 3 treatments of auxin IAA, IBA and NAA using various levels (1–5 mg/L) supplemented to modified MS media, Supporting system Agar (0.8%).
Four weeks long shoot achieved in experiment 2 were excised and transferred to above referred medium

Question: What does the source list for indole butyric acid [IBA]?
Answer: Time to rooting (1.0 to 5.0 mg/L auxin in modified MS basal culture medium): about 8 weeks; Rooting (wks) (auxin 1 mg/L in modified MS): 8 wks; Rooting % (auxin 1 mg/L in modified MS): 60%; Rooting (wks) (auxin 2 mg/L in modified MS): 8 wks; Rooting % (auxin 2 mg/L in modified MS): 62%; Rooting (wks) (auxin 5 mg/L in modified MS): 8 wks; Rooting % (auxin 5 mg/L in modified MS): 60%; Root morphology (in words): white colored, thick, and short
